Activity calls are given as the source filed them.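 How the source made its calls: active means 40% activation versus positive control reached by fitted dose-response curve at or below highest valid tested dose; inconclusive means poor fit quality, or flat fit with activation between 30% and 70%; inactive means the rest.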

The first assay can be described thus: inactive X chromosome reactivation in XiGFP fibroblasts, dose response, imaging, 68-5-11 mouse fibroblasts, GFP, cherry-pick (AID 743394).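 Further: sensitizer 5-aza-dC present in the wells at 0.5 mM final.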 The following applies: 68-5-11 mouse fibroblast XiGFP reporter, % GFP-positive imaging, 3 d; at 19.5 µM (top of the series).
With `O=c1[nH]c(=O)n(CCC2=CCCCC2)c(O)c1/C=N/Nc1ccccc1`, the activation is -0.002% (inactive). Take `COC(=O)Cn1cc(/C=C2\C(=O)NC(=O)N(c3ccc(OC)cc3)C2=O)c2ccccc21`: the activation is 0.09% (inactive).

The same assay, now with this note: 68-5-11 mouse fibroblast XiGFP reporter, % GFP-positive imaging, 3 d; at 19.5 µM (top of the series); cells co-treated with 5-aza-dC sensitizer; scaled: neutral wells 0, ellipticine wells 100.
For the molecule `CCCCOc1nc2ccccc2nc1NS(=O)(=O)c1ccc(F)cc1`, the activation is 0.851% (inactive).

With `Cc1ccsc1/C=N/n1c(-c2cc(-c3ccccc3)n[nH]2)n[nH]c1=S`, the activation was 0.001% (inactive). For the molecule `COc1ccc(-n2ncc(Cl)c(Cl)c2=O)cc1`, the activation was -0.032% (inactive).

Consider `Cc1ncsc1C(=O)Nc1cccc(C(F)(F)F)c1`, for which the activation is -0.075% (inactive).

Regarding `CC(C)(C)C1CCNC(=O)CC1` (configuration not stated), the activation was 0.008% (inactive). On to `COc1ccc(C2C(=O)c3ccccc3C2=Nc2ccc(Br)cc2)cc1` (configuration not stated), for which the activation was -0.066% (inactive). In the case of `COc1ccc(NS(=O)(=O)c2ccc(NC(C)=O)cc2)nn1`, the activation is 0.042% (inactive). As to `Cc1ccc(N2C(=O)C3C4C=CC(CNC(=S)N5CCN(c6ccccc6)CC5)(O4)C3C2=O)cc1` (configuration not stated), the activation is -0.008% (inactive). As for `CC1=C(Cl)C2=NS(=O)(=O)CCN2C=C1Cl`, the activation was 0.137% (inactive).

`COc1ccc(S(=O)(=O)Nc2cccc3c2O[C@H](CN(C)S(=O)(=O)c2cn(C)cn2)[C@H](C)CN([C@H](C)CO)C3=O)cc1`: the activation is -0.035% (inactive). Same read-out and setting: in the case of `COc1ccc(/C=C\c2onc(C)c2S(=O)(=O)N2CCC(C(=O)NCc3ccco3)CC2)cc1` it was 0.355% (inactive); in that of `Cc1nc(NC(=O)C(Cl)Cl)sc1C(=O)N(C)C`, -0.034% (inactive). On to `COc1cc(/C=C(\C#N)c2nc3ccccc3o2)ccc1O`, for which the activation is 1.85% (inactive).

Consider `COc1ccc(-c2ccc3[nH]c4c(c3c2)CCN2C(=O)[C@@H]([C@H](C)O)[C@@H](N(C)C(=O)Nc3ccc(F)cc3)C[C@@H]42)cc1`, for which the activation is 1.96% (inactive). With `CCN(CC)c1ccc(/C=C(/C#N)C(=O)NCc2ccccc2)o1`, the activation was 12.4% (inactive). `C[C@@H]1CCCCO[C@H](CN(C)Cc2ccc3c(c2)OCO3)[C@@H](C)CN([C@H](C)CO)C(=O)c2cc(NS(=O)(=O)c3ccc(F)cc3)ccc2O1`: the activation is 0.107% (inactive). Consider `O=C(COC(=O)c1ccc(NS(=O)(=O)c2cccs2)cc1O)NC1CCCCC1`, for which the activation is 0.098% (inactive). `COc1ccc2c3c([nH]c2c1)[C@H](CO)N(C(=O)C1CCCC1)CC31CN(Cc2nccs2)C1`: the activation was -0.007% (inactive).

Turning to `O=c1c2ccccc2nnn1Cc1ccc2ccccc2c1`, the activation is -0.047% (inactive). With `COc1ccc(NC(=O)Nc2ccc3c(c2)C(=O)N([C@@H](C)CO)C[C@H](C)[C@@H](CN(C)S(=O)(=O)c2ccc(OC)cc2)O3)cc1`, the activation was 0.014% (inactive). Consider `C[C@@H]1CN([C@@H](C)CO)S(=O)(=O)c2ccc(C#CC3CC3)cc2O[C@H]1CN(C)Cc1ccc(F)cc1`, for which the activation is 0.063% (inactive). For the molecule `CCOCCCNC(=O)C(c1ccc(C)cc1)N(Cc1cccs1)C(=O)c1ccccn1` (configuration not stated), the activation is 0.035% (inactive). Consider `Nc1[nH]c(=O)nc(Nc2ccccc2)c1N=O`, for which the activation is -0.037% (inactive). Consider `Cc1nnc(-c2ccc(N3CCCCCC3)c([N+](=O)[O-])c2)o1`, for which the activation is -0.007% (inactive). Consider `Cc1cc(NC(=O)CSc2nnc(-c3c[nH]c4ccccc34)n2-c2ccc(F)cc2)no1`, for which the activation was 0.139% (inactive).

For `Cc1nn(-c2ccccc2)c(N)c1N=O`, the activation is -0.053% (inactive). Turning to `COc1ccc(NC(=O)COc2ccc(C)c(C)c2)cc1S(=O)(=O)N1CCCCC1`, the activation was 0.164% (inactive). Same read-out and setting: in the case of `Cc1cc(N)ncc1[N+](=O)[O-]` it was 0.508% (inactive). `CCOC(=O)c1cnc(-c2ccc(C(F)(F)F)cn2)[nH]c1=O`: the activation is -0.017% (inactive). In the case of `O=C(C[C@H]1CC[C@H]2[C@@H](COC[C@@H](O)CN2C(=O)Nc2ccccc2)O1)NCCc1ccncc1`, the activation is 0.207% (inactive). As to `COc1ccc2c3c([nH]c2c1)[C@@H](CO)N(Cc1ccccc1F)CC31CN(C(=O)C2CCOCC2)C1`, the activation was 0.046% (inactive). `Cc1[nH]c2ccc(Br)cc2c(=O)c1CN1CCCCCC1`: the activation is -0.013% (inactive).

Consider `Cn1c(=N)n(CC(=O)c2ccccc2)c2ccccc21`, for which the activation is 0.105% (inactive). `CN(C)CCN(C(=O)c1ccc(S(=O)(=O)N(C)c2ccccc2)cc1)c1nc2cc3c(cc2s1)OCCO3`: the activation was -0.008% (inactive). On to `CN1OC[C@@H]2CN(Cc3ccccc3)[C@H](c3cccc(N4CCOCC4)c3)C[C@@H]21`, for which the activation was 0.022% (inactive).

For the molecule `C[C@@H]1CN([C@@H](C)CO)C(=O)c2cc(NS(=O)(=O)c3ccccc3)ccc2O[C@@H](C)CCCCO[C@@H]1CN(C)Cc1ccc2c(c1)OCO2`, the activation is 0% (inactive).

For `COc1ccc(CCn2c(C)cc(C(=O)CN3C(=O)C(=O)N(Cc4ccco4)C3=O)c2C)cc1`, the activation was 0.899% (inactive).

On to `COc1ccc2c(c1)c(/C=N/Nc1nc3ccccc3[nH]1)c(C)n2C`, for which the activation was 5.21% (inactive). Regarding `O=C1N(c2ccccc2)C[C@@H]2C[C@@H](c3cc4ccccc4o3)N3CCC[C@@]123`, the activation is -0.008% (inactive). Same read-out and setting: for `CC(C)CC(=O)Nc1c2c(nn1-c1ccc(F)cc1)CSC2` the value was 0.542% (inactive). As to `Cc1cccc2sc(N(CCCN(C)C)C(=O)CN3C(=O)c4ccccc4C3=O)nc12`, the activation is -0.047% (inactive). As to `CCCNNC(=O)C(O)(c1ccccc1)c1ccccc1`, the activation is -0.099% (inactive).

Regarding `CCOc1ccc(C(=O)c2cc([N+](=O)[O-])ccc2N2CCOCC2)cc1`, the activation was 0.569% (inactive). As for `O=C1C2C3C=CC(CNS(=O)(=O)c4ccccc4[N+](=O)[O-])(O3)C2C(=O)N1c1ccccc1` (configuration not stated), the activation is 0.059% (inactive). Turning to `S=C(NCc1ccco1)Nc1cccc(Cl)c1Cl`, the activation was -0.047% (inactive). On the same count and under the same terms, in the case of `O=C(Nc1c(F)cccc1F)C(c1ccccc1)c1ccccc1` it was 0.013% (inactive); in that of `CNc1ncnc(Sc2ccc(Cl)cc2)c1[N+](=O)[O-]`, 0.297% (inactive); in that of `CC(C)CC#Cc1ccc([C@@H]2[C@@H](CO)N3C(=O)CN(C(=O)c4cccc(F)c4)C[C@H]23)cc1`, 0.027% (inactive). Regarding `Cc1ccccc1C1c2[nH]c3ccccc3c2CCN1Cc1cccn1-c1ncccn1` (configuration not stated), the activation is 0.097% (inactive). The same measure, in the same setting: for `CC1CN(C(=O)/C=C/c2ccc([N+](=O)[O-])s2)CC(C)O1` (configuration not stated) the value was -0.075% (inactive); for `CC1=NN(c2ccc(C)c(C)c2)C(=O)/C1=C\C=C\c1ccc([N+](=O)[O-])o1`, -0.033% (inactive); for `CCOC(=O)c1ccc(NC(=O)C2(N3C(=O)c4ccccc4C3=O)CCCC2)cc1`, 0.082% (inactive). For the molecule `COCCNC(=O)CSc1nc2scc(-c3ccccc3)c2c(=O)[nH]1`, the activation was -0.001% (inactive). The same measure, in the same setting: in the case of `O=C(N/N=C/c1ccc(O)c2ncccc12)c1cccc(Br)c1` it was -0.037% (inactive); in that of `CCCCNc1nc2c(-c3ccccc3)nnn2c2ccccc12`, 0.101% (inactive).
